Patent publication US7550277B2, “D-amino acid dehydrogenase and method of making D-amino acids” (Codexis, Inc., priority 2005, dated 2009)

B1: wild-type diaminopimelate dehydrogenase enzyme from Corynebacterium glutamicum: wild-type diaminopimelate dehydrogenase from Corynebacterium glutamicum (ATTC #13032), SEQ ID NO. 2 (protein, listed as Corynebacterium glutamicum)
chain: MTNIRVAIVGYGNLGRSVEKLIAKQPDMDLVGIFSRRATLDTKTPVFDVADVDKHADDVDVLFLCMGSATDIPEQAPKFAQFACTVDTYDNHRDIPRHRQVMNEAATAAGNVALVSTGWDPGMFSINRVYAAAVLAEHQQHTFWGPGLSQGHSDALRRIPGVQKAVQYTLPSEDALEKARRGEAGDLTGKQTHKRQCFVVADAADHERIENDIRTMPDYFVGYEVEVNFIDEATFDSEHTGMPHGGHVITTGDTGGFNHTVEYILKLDRNPDFTASSQIAFGRAAHRMKQQGQSGAFTVLEVAPYLLSPENLDDLIARDV

Tests used:
[1] = spontaneous racemization of the hydantoin at a pH above 8; depends on substituent at the 5-position; cited from earlier work
[2] = Activity of DAPDH enzymes for reductive amination of 2-keto acids (NADPH decrease at 340 nm); type: biochemical
Description: The mutant DAPDH enzyme was assayed spectrophotometrically by monitoring the decrease in concentration of NADPH. The typical reductive amination reaction contained the following: 100 mM sodium carbonate/bicarbonate buffer, pH 9.0, 200 mM NH4Cl, 25 mM 2-keto acid, and 0.2 mM NADPH. The decrease in absorbance at 340 nm was monitored and an NADPH extinction coefficient of 6.22 mM^−1cm^−1 was used to correlate absorbance to concentration. Protein concentrations were determined via the Bradford method ^19 using bovine serum albumin as a protein standard.

Molecule	rate of racemization τ1/2 [1] [h]	activity toward the reductive amination of 2-ketoacids to produce D-amino acids [2]
tert-butylhydantoin	120	–
CC(C)C1NC(=O)NC1=O (centres unmarked) [isopropylhydantoin]	56	–
O=C1NC(=O)C(c2ccccc2)N1 (centres unmarked) [phenylhydantoin]	0.3	–
O=C1NC(=O)C(Cc2ccccc2)N1 (centres unmarked) [benzylhydantoin]	5	–
B1	–	little or no activity
